The target in one experiment is T1, IL-5 (Homo sapiens, UniProt P05113).
T1 construct: made in house; host or cells: baculovirus expression system (from the general materials paragraph)
T1 sequence (P05113 20-134): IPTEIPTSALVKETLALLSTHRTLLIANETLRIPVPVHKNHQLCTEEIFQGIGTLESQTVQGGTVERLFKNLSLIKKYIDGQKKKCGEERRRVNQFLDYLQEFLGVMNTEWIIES
The experiment is described as follows: IL-5 dependent Ba/F-IL-5 cell proliferation (luciferase). The class given is cell-based. The conditions noted are these: dose-response, FIG. 4. How it is done:
PPS inhibited the proliferation of an IL-5 responsive cell line. This occurs at very low doses and is not due to a toxic effect of the PPS as other similarly sulfated polysaccharides have no affect in this assay. These experiments are performed with the IL-5 responsive cells, Ba/F-IL-5. The Ba/F-IL-5 cells were derived from the Ba/F3 cell line.
The Ba/F3 cell line was transformed to be both IL-5 dependent and to express luciferase by co-transfection of the cells with pGL3 control vector (Promega, USA) and pEE6 hcmv-IL-5Rα. The control vector, pGL3 expresses a modified luciferase under the direct control of the SV40 promoter and enhancer, but contains no selectable marker. To prepare pEE6 hcmv-hIL-5Rα a full length human IL-5 receptor α chain (hIL-5R-α) was cloned by RT PCR from HL60 cells. The preparation of the Ba/F-IL-5 cells has been described by Coombe et al, Journal of Immunological Methods 215: 145-150, 1998. […]
After transfection, positive transfectants are selected in 3 μg/ml puromycin. […] The cells are counted with a Coulter Z2 Particle Counter and Size Analyzer (Coulter Electronics, England) and routinely 1.6×10^4 cells are added to microplate wells that contain either no IL-5 (negative control) or various dilutions of IL-5. When the effect of PPS, or other sulfated polysaccharides is to be measured, the wells also contain various concentrations of these molecules. […]

For another experiment, the target named is T2, Human leukocyte elastase (Homo sapiens, UniProt P08246).
T2 sequence (P08246 30-267): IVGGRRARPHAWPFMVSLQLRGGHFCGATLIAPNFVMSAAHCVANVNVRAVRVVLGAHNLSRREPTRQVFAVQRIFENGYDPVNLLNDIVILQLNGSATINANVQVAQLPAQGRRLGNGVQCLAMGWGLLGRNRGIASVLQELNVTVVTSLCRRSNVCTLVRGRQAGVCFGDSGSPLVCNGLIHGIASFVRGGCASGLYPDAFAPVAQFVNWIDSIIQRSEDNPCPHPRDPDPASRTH
Nature of the experiment: Elastase assay with fluorogenic substrate. It is filed as biochemical. The settings on record: fluorogenic substrate MeOSuc-Ala-Ala-Pro-Val-amido-methylcoumarin, pH 7.4, 37° C., 60 minutes; read-out: IC50, inhibition of human leukocyte elastase activity. The procedure:
Elastase is a protein that is a potential target for the treatment of COPD. Elastase assays were performed in 96-well plastic microplates for easy quantification by the fluorescent plate reader. Human leukocyte elastase (5 nM/well) was incubated in the presence of absence of pentosan polysulfate, or other sulfated polysaccharides, with the fluorogenic substrate MeOSuc-Ala-Ala-Pro-Val-amido-methylcoumarin (20 μM/well) in a sodium phosphate buffer, pH 7.4. The mixture was incubated at 37° C. for 60 minutes before the reaction was stopped by the addition of 10 μl/well of […] acetic acid and the mixture transferred to a 96-well microplate with fluorescence being measured using an excitation wavelength of 355 nm and an emission wavelength of 460 nm. Various concentrations of inhibitors were used to allow the calculation of the concentration of polysaccharide required to inhibit enzyme activity by 50% (IC50).

Another experiment deals with human MCP-1 (Homo sapiens, UniProt P13500). Nature of the experiment: MCP-1 induced migration of THP-1 cells (chemotaxis). It is filed as cell-based. The conditions noted are these: 50 μg/ml, MCP-1 10 ng/ml. How it is done: These cells were originally derived from the peripheral blood of a patient with acute monocytic leukaemia. The assay was very similar to that described above. The chemotaxis assays were performed in 96-well Costar chemotaxis plates and human MCP-1 (+/−inhibitor) was added to the bottom chamber and the THP-1 cells in RPMI/1% FCS were added to the top chamber and the plate was incubated at 37° C. for 2.5 hour to allow cells to move from the top chamber into the bottom. The number of cells migrating into the bottom chamber was quantified by labeling with AQUEOUS ONE (30 μl/well) for 4 hours before absorbance at 490 run is read. MCP-1 was used at a final concentration of 10 ng/ml and the inhibitors were the sulfated xylan pentasaccharide (10 and 50 μg/ml) and PPS (10 and 50 μg/ml). In these experiments both PPS and the sulfated xylan pentasaccharide were effective, but PPS was a better inhibitor (FIG. 18) as at 50 μg/ml PPS inhibited cell movement by 89% whereas at the same concentration the sulfated xylan pentasaccharide cell movement by 53%.
human MCP-1, sequence (P13500 24-99): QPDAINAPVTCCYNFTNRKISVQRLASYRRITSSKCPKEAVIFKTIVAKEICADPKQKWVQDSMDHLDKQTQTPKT

Turning to Pentosan polysulfate [PPS], at IL-5, the “Inhibition of IL-5 dependent Ba/F-IL-5 cell proliferation (in words)” value was “effective inhibitor”. The IC50 on Human leukocyte elastase is about 1.8 µM. Besides, on human MCP-1, the “Inhibition of cell movement induced by MCP-1” value came to 89%.

As a reminder, the IC50 is the concentration needed to halve the response being measured.

Source of the values: US20180078576A1, “SULPHATED XYLANS FOR TREATMENT OR PROPHYLAXIS OF RESPIRATORY DISEASES” (Paradigm Biopharmaceuticals Limited, priority 2007, published 2018).
